This experiment concerns the target T1, aurora-2 kinase (Homo sapiens, UniProt O14965).
T1 construct: purchased Upstate, Lake Placid, N.Y; host or cells: sf9 cells
T1 sequence (O14965 1-403): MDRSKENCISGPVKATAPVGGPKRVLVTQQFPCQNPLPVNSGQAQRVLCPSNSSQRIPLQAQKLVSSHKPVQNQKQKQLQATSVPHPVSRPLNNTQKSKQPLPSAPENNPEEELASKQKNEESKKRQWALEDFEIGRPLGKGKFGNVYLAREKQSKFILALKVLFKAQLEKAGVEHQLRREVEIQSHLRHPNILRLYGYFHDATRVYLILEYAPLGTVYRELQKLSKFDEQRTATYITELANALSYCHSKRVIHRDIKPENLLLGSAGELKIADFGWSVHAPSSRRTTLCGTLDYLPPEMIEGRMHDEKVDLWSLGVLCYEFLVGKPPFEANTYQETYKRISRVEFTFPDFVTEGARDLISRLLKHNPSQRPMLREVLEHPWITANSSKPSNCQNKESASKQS
Briefly: aurora-2 kinase inhibition assay (Kinase-Glo, ATP remaining). Type of experiment: biochemical. The method, then: In this assay kinase activity was determined by quantifying the amount of ATP remaining in solution following a kinase reaction by measuring the light units (LU) produced by luciferase using a luminometer. Percent inhibition was determined for individual compounds by comparing luminometer readings of drug-treated reactions to controls containing no drug (DMSO control) and no Aurora-2 enzyme (ATP control) in the following equation: […]
(§1) In a 50 μl reaction, recombinant aurora-2 kinase produced in sf9 cells (Upstate, Lake Placid, N.Y.) was incubated at 30° C. for two hours with 62.5 μM Kemptide (Calbiochem, San Diego, Calif.), 3 μM ATP (Invitrogen, Carlsbad, Calif.) and kinase reaction buffer (40 mM Tris-HCl, 10 mM MgCl2 and 0.1 μg/μl bovine serum albumin (BSA)). This reaction was carried out in the presence of drug substances, which had been previously diluted to desired concentrations in DMSO. After incubation, 50 μl of Kinase-Glo® (Promega, Inc., Madison, Wis.) solution was added to each reaction mixture and allowed to equilibrate for 10 minutes at room temperature. Kinase-Glo solution contains luciferase enzyme and luciferin, which react with ATP to produce light. Kinase activity is determined by quantifying the amount of ATP remaining in solution following the kinase reaction by measuring the light units (LU) produced by luciferase using a luminometer (Thermo-Electron, Vantaa, Finland).
Briefly, kinase activity was determined by quantifying the amount of ATP remaining in solution following a kinase reaction by measuring the light units (LU) produced by luciferase using a luminometer. Percent inhibition was determined for individual compounds by comparing luminometer readings of drug-treated reactions to controls containing no drug (DMSO control) and no Aurora-2 enzyme (ATP control) in the following equation: […]
as §1, with “μg/Il” for “μg/μl”
Illustrative compounds 2-3, 2-5, 2-7, 2-4 and 2-9 were evaluated in an aurora-2 kinase inhibition assay. In this assay kinase activity was determined by quantifying the amount of ATP remaining in solution following a kinase reaction by measuring the light units (LU) produced by luciferase using a luminometer. Percent inhibition was determined for individual compounds by comparing luminometer readings of drug-treated reactions to controls containing no drug (DMSO control) and no Aurora-2 enzyme (ATP control) in the following equation: […]
On the technique in general: Kinase-Glo reads ATP consumption through a luciferase reaction.

The mark [1] stands for this setting: Example 17, 3 μM ATP, read-out: IC50 (drug concentration at which 50% of aurora-2 kinase activity was inhibited).
[2] abbreviates: Example 20, unit from the table's spanning head, read-out: IC50 A2K.
Where [3] appears, read: Example 54, Table 8, 3 μM ATP, read-out: Aurora-2 Inhibition, IC50.

Like-named read-outs stand apart in the source and are kept apart here.

Regarding `CC(=O)NS(=O)(=O)c1ccc(NC(=S)N2CCN(c3ncnc4[nH]c5cc(C(F)(F)F)c(Cl)cc5c34)CC2)cc1` [Compound 1-1, 4-(6-Chloro-7-trifluoromethyl-9H-pyrimido[4,5-b]indol-4-yl)-piperazine-1-carbothioic acid (4-acetylsulfamoyl-phenyl)-amide], the IC50 under setting [1] was determined as 49 nM. For `COc1cc2[nH]c3ncnc(N4CCN(C(=S)Nc5ccc(S(=O)(=O)NC(C)=O)cc5)CC4)c3c2cc1OC` [Compound 1-2, 4-(6,7-Dimethoxy-9H-pyrimido[4,5-b]indol-4-yl)-piperazine-1-carbothioic acid (4-acetylsulfamoyl-phenyl)-amide], the IC50 is, setting by setting: under setting [1], less than 5 nM; under setting [2], not above 5 nM. Take `CC(=O)NS(=O)(=O)c1ccc(NC(=S)N2CCN(c3ncnc4[nH]c5ccc(Cl)cc5c34)CC2)cc1` [Compound 1-3, 4-(6-chloro-9H-pyrimido[4,5-b]indol-4-yl)-piperazine-1-carbothioic acid (4-acetylsulfamoyl-phenyl)-amide]: the IC50 under setting [2] is 74 nM. Regarding `CC(=O)NS(=O)(=O)c1ccc(NC(=S)N2CCN(c3ncnc4[nH]c5cc(F)ccc5c34)CC2)cc1` [Compound 1-4], the IC50 under setting [2] was 23 nM. On the same count and under the same terms, then `COc1cc2c(cc1O)[nH]c1ncnc(N3CCN(C(=S)Nc4ccc(S(=O)(=O)NC(C)=O)cc4)CC3)c12` [Compound 1-8], with 18 nM. Still for that read-out and setting: then `COc1cc2[nH]c3ncnc(N4CCN(C(=S)Nc5ccc(S(=O)(=O)N6CCOCC6)cc5)CC4)c3c2cc1OC` [Compound 1-26], with 317 nM. Still for that read-out and setting: next, `COc1cc2[nH]c3ncnc(N4CCN(C(=S)Nc5ccc(NC(=O)C6CC6)cc5)CC4)c3c2cc1OC` [Compound 1-34]: 2090 nM; `COc1cc2[nH]c3ncnc(N4CCN(C(=S)Nc5ccc(NC(C)=O)cc5)CC4)c3c2cc1OC` [Compound 1-42]: 4970 nM. On to `COc1cc2[nH]c3ncnc(N4CCN(C(=S)Nc5ccc(S(N)(=O)=O)cc5)CC4)c3c2cc1OC` [Compound 1-107], for which the IC50 under setting [2] is 586 nM. Same read-out and setting: next, `COc1cc2[nH]c3ncnc(N4CCN(C(=S)Nc5ccc(S(C)(=O)=O)cc5)CC4)c3c2cc1OC` [Compound 1-115]: 743 nM.

With `COc1cc2[nH]c3ncnc(N4CCN(C(=S)Nc5ccc(S(=O)(=O)Nc6ccc(F)cc6)cc5)CC4)c3c2cc1OC` [Compound 2-3, 4-(6,7-dimethoxy-9H-pyrimido[4,5-b]indol-4-yl)-N-(4-(N-(4-fluorophenyl)sulfamoyl)phenyl)piperazine-1-carbothioamide], the IC50 under setting [3] amounted to 110 nM.

For the molecule `COc1ccc2c(c1)[nH]c1ncnc(N3CCN(C(=S)Nc4ccc(S(=O)(=O)Nc5ccc(F)cc5)cc4)CC3)c12` [Compound 2-5, 4-(7-methoxy-9H-pyrimido[4,5-b]indol-4-yl)-N-(4-(N-(4-fluorophenyl)sulfamoyl)phenyl)piperazine-1-carbothioamide], the IC50 under setting [3] came out at 569 nM.

Consider `Cc1ccc(NS(=O)(=O)c2ccc(NC(=S)N3CCN(c4ncnc5[nH]c6cc(Cl)c(N7CCOCC7)cc6c45)CC3)cc2)cc1` [Compound 2-9, 4-(7-chloro-6-morpholino-9H-pyrimido[4,5-b]indol-4-yl)-N-(4-(N-tolylsulfamoyl)phenyl)piperazine-1-carbothioamide], for which the IC50 under setting [3] stood at 837 nM.

The record behind these values is patent US20080207632A1, “PROTEIN KINASE INHIBITORS” (SUPERGEN, INC., priority 2006, published 2008).
